The values that follow come from ChEMBL document CHEMBL5104230, “Preparation, biological evaluation and QSAR analysis of urea substituted 2,4-diamino-pyrimidine anti-malarials” (RSC Med Chem, 2022).

Values after ≈ are worked out from the molar mass of the structure shown.

In data set [1] the test system is Plasmodium falciparum. Put plainly: Antimalarial activity against chloroquine sensitive Plasmodium falciparum 3D7 infected in human RBC assessed as parasite growth inhibition incubated for 72 hrs by SYBR Green dye based fluorescence assay. The data set is classed as functional, organism-based. The settings on record: 3D7, Erythrocyte.
Data set [2] has as its system HepG2. The experiment in a line: Cytotoxicity against human HepG2 cells assessed as cell growth inhibition incubated for 72 hrs by resazurin dye based fluorescence assay. The data set is classed as functional. The settings on record: HepG2, 72 h.
Data set [3] in a line: Partition coefficient, logD of compound in octanol and phosphate buffer at pH 7.4 incubated for 6 hrs under shaking condition by HPLC-UV analysis. The format is physicochemical.
Data set [4] can be described thus: Aqueous solubility of compound in PBS buffer at pH 7.4 by HPLC-UV analysis. The data set is classed as physicochemical.
Data set [5] is described as follows: Effective permeability in PBS at pH 7.4 incubated for 5 hrs by PAMPA based UPLC-MS/MS analysis. The data set is classed as ADME.
The nature of data set [6]: Metabolic stability in human liver microsome assessed as intrinsic clearance at 0.5 uM incubated upto 30 mins by UPLC-MS/MS analysis. The format is ADME. The settings on record: microsomes, 0.5 h.
A short description of data set [7]: Metabolic stability in CD1 mouse liver microsome assessed as intrinsic clearance at 0.5 uM incubated upto 30 mins by UPLC-MS/MS analysis. The format is ADME. The settings on record: microsomes, 0.5 h. On the technique in general: Microsomes from liver hold many membrane-bound enzymes, among them those of drug oxidation.
Data set [8] deals with Serine/threonine-protein kinase pim-1 (Homo sapiens) (UniProt P11309). The experiment in a line: Inhibition of human PIM1 at 1 uM incubated for 30 mins in presence of [gamma-33P]ATP by kinase selectivity assay.
Chain of Serine/threonine-protein kinase pim-1 (Homo sapiens) (P11309 whole entry, looked up): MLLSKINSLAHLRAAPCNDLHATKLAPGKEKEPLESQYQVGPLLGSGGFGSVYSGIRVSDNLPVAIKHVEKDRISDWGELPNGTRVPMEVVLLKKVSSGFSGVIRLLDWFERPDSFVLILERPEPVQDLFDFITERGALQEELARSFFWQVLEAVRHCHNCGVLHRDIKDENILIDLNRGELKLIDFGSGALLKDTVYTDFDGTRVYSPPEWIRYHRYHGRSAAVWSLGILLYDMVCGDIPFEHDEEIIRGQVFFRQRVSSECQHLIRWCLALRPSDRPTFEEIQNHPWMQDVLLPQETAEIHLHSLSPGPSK
Data set [9] deals with Cyclin-dependent kinase 2 (Homo sapiens) (UniProt P24941). Put plainly: Inhibition of human CDK2 at 1 uM incubated for 30 mins in presence of [gamma-33P]ATP by kinase selectivity assay.
Data set [10] concerns the target Mitogen-activated protein kinase 3 (Homo sapiens) (UniProt P27361). The experiment in a line: Inhibition of human ERK1 at 1 uM incubated for 30 mins in presence of [gamma-33P]ATP by kinase selectivity assay.
Data set [11] addresses Mitogen-activated protein kinase 8 (Homo sapiens) (UniProt P45983). The experiment in a line: Inhibition of human JNK1 at 1 uM incubated for 30 mins in presence of [gamma-33P]ATP by kinase selectivity assay.
Data set [12] has as its target T1, Tyrosine-protein kinase JAK3 (Homo sapiens) (UniProt P52333).
T1 sequence (whole entry): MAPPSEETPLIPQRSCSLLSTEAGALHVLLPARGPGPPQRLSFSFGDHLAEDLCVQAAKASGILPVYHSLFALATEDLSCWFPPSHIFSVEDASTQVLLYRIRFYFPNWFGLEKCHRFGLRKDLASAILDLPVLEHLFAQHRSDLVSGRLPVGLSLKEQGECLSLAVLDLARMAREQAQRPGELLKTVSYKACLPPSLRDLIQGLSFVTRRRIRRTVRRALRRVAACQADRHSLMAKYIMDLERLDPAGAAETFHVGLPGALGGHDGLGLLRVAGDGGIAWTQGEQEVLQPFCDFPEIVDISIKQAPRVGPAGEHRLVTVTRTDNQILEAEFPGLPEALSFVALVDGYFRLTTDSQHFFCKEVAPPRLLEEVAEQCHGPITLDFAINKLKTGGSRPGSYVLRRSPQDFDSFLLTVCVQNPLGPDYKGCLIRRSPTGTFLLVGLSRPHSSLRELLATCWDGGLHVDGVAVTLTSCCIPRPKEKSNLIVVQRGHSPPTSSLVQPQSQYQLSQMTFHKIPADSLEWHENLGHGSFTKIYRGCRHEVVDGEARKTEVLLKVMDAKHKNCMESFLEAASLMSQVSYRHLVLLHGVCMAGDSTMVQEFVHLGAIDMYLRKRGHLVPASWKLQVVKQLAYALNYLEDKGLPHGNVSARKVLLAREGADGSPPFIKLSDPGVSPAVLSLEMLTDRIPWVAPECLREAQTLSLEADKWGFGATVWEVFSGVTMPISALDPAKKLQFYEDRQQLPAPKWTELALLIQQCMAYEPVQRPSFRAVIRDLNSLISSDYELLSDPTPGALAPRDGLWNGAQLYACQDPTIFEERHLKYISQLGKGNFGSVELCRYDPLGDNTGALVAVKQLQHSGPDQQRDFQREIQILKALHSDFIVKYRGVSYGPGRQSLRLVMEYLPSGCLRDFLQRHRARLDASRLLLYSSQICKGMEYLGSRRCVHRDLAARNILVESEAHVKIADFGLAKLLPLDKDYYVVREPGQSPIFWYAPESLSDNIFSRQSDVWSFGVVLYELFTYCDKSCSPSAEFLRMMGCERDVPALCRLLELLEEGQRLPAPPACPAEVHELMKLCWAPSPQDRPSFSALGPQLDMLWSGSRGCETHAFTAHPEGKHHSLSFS
Put plainly: Inhibition of human JAK3 at 1 uM incubated for 30 mins in presence of [gamma-33P]ATP by kinase selectivity assay.

In data set [13] the target is Mitogen-activated protein kinase kinase kinase 1 (Homo sapiens) (UniProt Q13233). Put plainly: Inhibition of human MEKK1 at 1 uM incubated for 30 mins in presence of [gamma-33P]ATP by kinase selectivity assay.
Data set [14] deals with Receptor tyrosine-protein kinase erbB-4 (Homo sapiens) (UniProt Q15303). The experiment in a line: Inhibition of human HER4 at 1 uM incubated for 30 mins in presence of [gamma-33P]ATP by kinase selectivity assay.
Chain of Receptor tyrosine-protein kinase erbB-4 (Homo sapiens) (Q15303 whole entry): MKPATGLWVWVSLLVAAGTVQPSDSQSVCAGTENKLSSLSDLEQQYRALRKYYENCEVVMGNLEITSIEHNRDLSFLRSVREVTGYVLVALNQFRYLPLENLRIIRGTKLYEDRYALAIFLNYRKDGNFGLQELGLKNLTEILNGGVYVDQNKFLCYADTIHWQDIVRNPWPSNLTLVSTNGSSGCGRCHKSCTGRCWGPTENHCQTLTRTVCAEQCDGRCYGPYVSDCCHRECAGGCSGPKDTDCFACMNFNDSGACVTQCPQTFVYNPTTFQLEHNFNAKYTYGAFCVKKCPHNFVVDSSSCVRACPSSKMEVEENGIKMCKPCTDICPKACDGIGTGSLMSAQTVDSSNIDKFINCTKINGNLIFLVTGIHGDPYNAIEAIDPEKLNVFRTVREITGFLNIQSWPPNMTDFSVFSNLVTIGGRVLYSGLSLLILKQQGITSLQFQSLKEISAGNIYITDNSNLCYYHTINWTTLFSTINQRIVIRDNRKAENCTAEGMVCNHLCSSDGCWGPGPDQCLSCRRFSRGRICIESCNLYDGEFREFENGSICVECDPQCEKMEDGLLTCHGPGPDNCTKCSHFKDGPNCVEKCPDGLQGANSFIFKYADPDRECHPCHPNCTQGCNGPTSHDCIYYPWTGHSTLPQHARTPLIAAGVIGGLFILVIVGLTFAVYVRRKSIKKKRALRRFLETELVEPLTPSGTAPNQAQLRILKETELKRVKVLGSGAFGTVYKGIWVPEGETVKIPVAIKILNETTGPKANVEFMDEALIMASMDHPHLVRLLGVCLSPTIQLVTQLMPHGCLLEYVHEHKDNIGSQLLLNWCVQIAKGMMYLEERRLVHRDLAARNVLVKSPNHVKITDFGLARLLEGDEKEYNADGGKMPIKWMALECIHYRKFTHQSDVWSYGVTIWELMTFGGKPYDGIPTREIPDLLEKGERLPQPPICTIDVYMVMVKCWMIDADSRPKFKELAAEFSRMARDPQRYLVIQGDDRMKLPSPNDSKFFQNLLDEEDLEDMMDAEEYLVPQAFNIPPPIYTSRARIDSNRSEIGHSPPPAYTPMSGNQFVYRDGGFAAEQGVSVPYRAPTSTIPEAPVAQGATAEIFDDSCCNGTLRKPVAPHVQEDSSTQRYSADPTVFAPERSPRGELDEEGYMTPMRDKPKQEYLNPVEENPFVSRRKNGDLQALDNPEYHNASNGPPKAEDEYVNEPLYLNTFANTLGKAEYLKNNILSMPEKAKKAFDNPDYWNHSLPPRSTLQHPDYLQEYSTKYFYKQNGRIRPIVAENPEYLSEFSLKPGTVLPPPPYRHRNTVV
For data set [15], the target named is T2, Mitogen-activated protein kinase kinase kinase 7 (Homo sapiens) (UniProt O43318).
T2 sequence (whole entry): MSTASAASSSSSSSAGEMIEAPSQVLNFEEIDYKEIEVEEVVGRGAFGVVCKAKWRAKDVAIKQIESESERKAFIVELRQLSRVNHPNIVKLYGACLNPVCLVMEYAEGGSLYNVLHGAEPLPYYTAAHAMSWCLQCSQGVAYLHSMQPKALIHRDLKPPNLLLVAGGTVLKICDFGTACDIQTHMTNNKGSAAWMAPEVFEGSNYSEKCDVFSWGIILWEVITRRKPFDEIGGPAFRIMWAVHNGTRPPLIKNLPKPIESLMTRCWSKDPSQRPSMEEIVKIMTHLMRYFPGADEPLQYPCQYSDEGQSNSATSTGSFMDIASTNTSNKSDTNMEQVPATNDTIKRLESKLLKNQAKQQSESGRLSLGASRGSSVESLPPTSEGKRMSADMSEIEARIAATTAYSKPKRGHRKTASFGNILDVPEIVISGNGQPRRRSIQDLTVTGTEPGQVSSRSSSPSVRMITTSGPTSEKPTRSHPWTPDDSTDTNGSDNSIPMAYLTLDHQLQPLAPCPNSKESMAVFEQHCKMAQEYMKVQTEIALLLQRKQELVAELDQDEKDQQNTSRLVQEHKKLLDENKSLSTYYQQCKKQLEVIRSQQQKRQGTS
Put plainly: Inhibition of human TAK1 at 1 uM incubated for 30 mins in presence of [gamma-33P]ATP by kinase selectivity assay.

Data set [16] deals with T3, Aurora kinase A (Homo sapiens) (UniProt O14965).
T3 sequence (whole entry): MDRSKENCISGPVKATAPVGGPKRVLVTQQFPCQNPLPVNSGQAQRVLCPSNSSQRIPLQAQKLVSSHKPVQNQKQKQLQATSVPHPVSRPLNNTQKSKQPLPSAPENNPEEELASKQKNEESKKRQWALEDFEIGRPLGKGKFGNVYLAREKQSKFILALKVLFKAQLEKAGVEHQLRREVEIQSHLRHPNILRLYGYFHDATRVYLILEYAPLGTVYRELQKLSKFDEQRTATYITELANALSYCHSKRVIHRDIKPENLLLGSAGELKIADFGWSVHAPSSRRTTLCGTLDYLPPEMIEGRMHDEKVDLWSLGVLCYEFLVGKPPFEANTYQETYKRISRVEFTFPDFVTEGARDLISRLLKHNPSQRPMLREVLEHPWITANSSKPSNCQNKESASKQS
Put plainly: Inhibition of human AURA at 1 uM incubated for 30 mins in presence of [gamma-33P]ATP by kinase selectivity assay.

The target of data set [17] is Vascular endothelial growth factor receptor 1 (Homo sapiens) (UniProt P17948). Put plainly: Inhibition of human VEGFR1 at 1 uM incubated for 30 mins in presence of [gamma-33P]ATP by kinase selectivity assay.
Chain of Vascular endothelial growth factor receptor 1 (Homo sapiens) (P17948 whole entry): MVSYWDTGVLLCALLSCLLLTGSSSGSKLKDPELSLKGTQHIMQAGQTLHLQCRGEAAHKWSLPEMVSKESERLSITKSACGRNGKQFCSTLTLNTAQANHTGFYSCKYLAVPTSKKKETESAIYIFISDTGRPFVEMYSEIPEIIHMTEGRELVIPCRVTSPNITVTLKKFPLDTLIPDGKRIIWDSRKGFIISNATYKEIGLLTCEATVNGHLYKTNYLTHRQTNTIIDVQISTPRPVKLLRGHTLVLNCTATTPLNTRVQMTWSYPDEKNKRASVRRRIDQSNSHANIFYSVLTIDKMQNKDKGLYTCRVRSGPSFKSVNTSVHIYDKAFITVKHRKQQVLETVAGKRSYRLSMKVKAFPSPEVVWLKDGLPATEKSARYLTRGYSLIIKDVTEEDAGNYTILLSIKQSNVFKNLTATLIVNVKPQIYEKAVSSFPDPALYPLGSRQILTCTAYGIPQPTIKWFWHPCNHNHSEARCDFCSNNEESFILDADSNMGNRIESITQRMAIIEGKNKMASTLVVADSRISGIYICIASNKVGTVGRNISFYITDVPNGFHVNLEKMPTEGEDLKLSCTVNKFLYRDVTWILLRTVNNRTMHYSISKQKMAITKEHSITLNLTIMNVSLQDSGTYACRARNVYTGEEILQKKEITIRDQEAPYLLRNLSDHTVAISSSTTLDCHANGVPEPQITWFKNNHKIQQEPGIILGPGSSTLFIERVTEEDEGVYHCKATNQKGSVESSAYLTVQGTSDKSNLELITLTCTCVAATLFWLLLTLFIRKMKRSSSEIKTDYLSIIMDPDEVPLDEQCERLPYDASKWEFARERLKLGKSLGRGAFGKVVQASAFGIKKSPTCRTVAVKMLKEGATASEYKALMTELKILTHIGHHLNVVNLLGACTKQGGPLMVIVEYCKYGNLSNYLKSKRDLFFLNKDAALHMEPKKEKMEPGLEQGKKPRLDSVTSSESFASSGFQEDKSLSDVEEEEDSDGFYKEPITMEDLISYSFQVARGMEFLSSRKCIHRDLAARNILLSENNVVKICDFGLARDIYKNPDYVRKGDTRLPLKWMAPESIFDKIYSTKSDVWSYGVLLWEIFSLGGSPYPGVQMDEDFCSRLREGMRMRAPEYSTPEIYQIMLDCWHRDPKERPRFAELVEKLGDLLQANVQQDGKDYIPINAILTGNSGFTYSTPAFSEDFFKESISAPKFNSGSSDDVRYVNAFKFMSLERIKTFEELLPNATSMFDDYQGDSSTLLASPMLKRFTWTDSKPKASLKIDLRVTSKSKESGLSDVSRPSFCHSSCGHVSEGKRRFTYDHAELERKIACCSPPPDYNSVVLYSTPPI
Data set [18] deals with Plasmodium falciparum. Put plainly: Antimalarial activity against Plasmodium falciparum 3D7 assessed as reduction in parasite growth incubated for 72 hrs. The data set is classed as functional, organism-based. The settings on record: 3D7, 72 h.
The subject of data set [19] is HepG2. Put plainly: Cytotoxicity against human HepG2 cells assessed as cell growth inhibition at 10 uM incubated for 48 hrs by CellTiter-Glo assay. The format is functional. Also noted: scale not given: the % may be the effect or the level left. Background: ATP-based viability assays read luminescence as a measure of living cells.

Chain of Mitogen-activated protein kinase 8 (Homo sapiens) (P45983 whole entry): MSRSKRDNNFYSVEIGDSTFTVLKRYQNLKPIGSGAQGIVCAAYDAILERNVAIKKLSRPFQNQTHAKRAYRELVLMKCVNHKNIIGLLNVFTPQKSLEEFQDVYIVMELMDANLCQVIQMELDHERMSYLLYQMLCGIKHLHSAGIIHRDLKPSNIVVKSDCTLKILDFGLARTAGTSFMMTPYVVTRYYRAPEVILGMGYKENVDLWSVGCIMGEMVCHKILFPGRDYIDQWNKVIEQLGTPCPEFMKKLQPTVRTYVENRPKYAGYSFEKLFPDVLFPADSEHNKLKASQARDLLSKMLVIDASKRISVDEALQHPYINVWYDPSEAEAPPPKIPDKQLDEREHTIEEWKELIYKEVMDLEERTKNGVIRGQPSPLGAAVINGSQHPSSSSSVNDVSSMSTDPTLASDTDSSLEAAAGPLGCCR
Chain of Mitogen-activated protein kinase 3 (Homo sapiens) (P27361 whole entry): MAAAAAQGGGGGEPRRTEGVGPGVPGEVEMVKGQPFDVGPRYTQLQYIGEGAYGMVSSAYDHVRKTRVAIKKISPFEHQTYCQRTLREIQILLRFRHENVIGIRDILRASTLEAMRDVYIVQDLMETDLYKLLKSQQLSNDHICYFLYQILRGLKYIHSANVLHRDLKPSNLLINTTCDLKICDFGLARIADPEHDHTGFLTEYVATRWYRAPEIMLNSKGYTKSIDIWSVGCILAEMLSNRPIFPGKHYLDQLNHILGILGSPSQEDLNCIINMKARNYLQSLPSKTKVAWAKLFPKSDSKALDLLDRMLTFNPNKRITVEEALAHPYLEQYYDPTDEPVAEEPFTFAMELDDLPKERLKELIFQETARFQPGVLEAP

The term IC50 denotes the concentration that gives 50% inhibition. A word on the logD: it is lipophilicity at a set pH, counting ionised and neutral species. What is called solubility is the dissolved amount per volume that the medium holds. The Papp is the rate of passage across a membrane or cell layer, normalised by area and donor concentration. As a reminder, the inhibition is how much of the control response was suppressed. For the compound `O=C(Nc1ccccc1)Nc1cccc(Nc2nccc(Nc3ccc4cc[nH]c4c3)n2)c1`, the values for the half-maximal inhibitory concentration (IC50) in the data set on Plasmodium falciparum [1] and in the data set with HepG2 [2] were 90 nM and 3200 nM, respectively. The compound also showed a logD at 6 h in data set [3] of no less than 4. Further, the concentration in solution in data set [4] (solubility) came to 0.44 µg/mL (≈ 1.01 µM). This compound yielded a Papp at 5 h in data set [5] of 10 ×10⁻⁶ cm/s. Moreover, the results for the CLH in [6] and in data set [7] were 2.6 mL/min/g and 3.8 mL/min/g, respectively. Also, the inhibition in data set [8] is 80.2%; in [9] it was 78.8%; in [10], 75.6%; in data set [11], 59.6%; in data set [12], 57.7%; in data set [13], 40.7%. In addition, the inhibition is 42.3% in data set [14], 17.1% in data set [15], 16.5% in [16] and 2.4% in data set [17].

A word on the EC50: it is the concentration at which the effect is half-maximal. On to `CC(=O)c1ccc(NC(=O)Nc2ccc(N(C)c3ccnc(Nc4cccc(CS(C)(=O)=O)c4)n3)cc2)cc1`, for which, in the data set with Plasmodium falciparum [18], the EC50 was determined as 120 nM. The Activity with HepG2 [19] was 86%.

As to `CN1CCN(c2ccc(Nc3ncc(C#N)c(Nc4ccccc4C(N)=O)n3)cc2)CC1`, the EC50 with Plasmodium falciparum [18] was determined as 40 nM. In the data set with HepG2 [19], the Activity amounted to 43%.
